Like-named read-outs stand apart in the source and are kept apart here.
Key:
Type in all cases: in vivo
[1] = system: barnyardgrass (Echinochloa crus-galli); assay: Test A pre-/postemergence plant response; conditions: Echinochloa crus-galli, 240 h; for pest or weed control at 125 g/ha: 125 g ai/ha; for pest or weed control at 500 g/ha: 500 g ai/ha
In short: (§1)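 Seeds planted in loam soil/sand blend; test chemicals in non-phytotoxic solvent mixture with surfactant applied as directed soil spray preemergence and, concurrently, postemergence to plants 2–10 cm tall at one- to two-leaf stage. Greenhouse ~10 days; visual injury vs untreated controls, 0 (no effect) to 100 (complete control).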

corn (Zea mays) = assay: Test A pre-/postemergence plant response; conditions: Zea mays, 240 h; for Corn plant response rating (crop injury, 0 = no effect, 100 = complete kill) at 500 g/ha: 500 g ai/ha
In short: as §1

[2] = system: giant foxtail (Setaria faberii); assay: Test A pre-/postemergence plant response; conditions: Setaria faberi, 240 h; for pest or weed control at 125 g/ha: 125 g ai/ha; for pest or weed control at 500 g/ha: 500 g ai/ha
In short: as §1

[3] = system: large crabgrass (Digitaria sanguinalis); assay: Test A pre-/postemergence plant response; conditions: Digitaria sanguinalis, 240 h; for pest or weed control at 125 g/ha: 125 g ai/ha; for pest or weed control at 500 g/ha: 500 g ai/ha
In short: as §1

[4] = system: morningglory (Ipomoea spp.); assay: Test A pre-/postemergence plant response; conditions: Ipomoea, 240 h; for pest or weed control at 125 g/ha: 125 g ai/ha; for pest or weed control at 500 g/ha: 500 g ai/ha
In short: as §1

[5] = system: pigweed (Amaranthus retroflexus); assay: Test A pre-/postemergence plant response; conditions: Amaranthus retroflexus, 240 h, approx. ten days; for pest or weed control at 500 g/ha: 500 g ai/ha, read-out: Plant response rating, Pigweed
In short: as §1

[6] = system: velvetleaf (Abutilon theophrasti); assay: Test A pre-/postemergence plant response; conditions: Abutilon theophrasti, 240 h; for pest or weed control at 125 g/ha: 125 g ai/ha; for pest or weed control at 500 g/ha: 500 g ai/ha
In short: as §1

[7] = system: wheat (Triticum aestivum); assay: Test A pre-/postemergence plant response; conditions: Triticum aestivum, 240 h; for plant injury at 125 g/ha: 125 g ai/ha; for plant injury at 500 g/ha: 500 g ai/ha
In short: as §1

[8] = system: barnyardgrass (Echinochloa crus-galli); assay: Test B flooded paddy test; conditions: Echinochloa crus-galli, 360 h
In short: (§2)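 Greenhouse-held for 13 to 15 days, treated pots were compared visually with controls and scored 0–100 (0, no effect). Treatment had been made into paddy water kept at 3 cm above the soil, with plants at the 2-leaf stage.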

[9] = system: ducksalad (Heteranthera limosa); assay: Test B flooded paddy test; conditions: Heteranthera limosa, 360 h
In short: as §2

rice (Oryza sativa) = assay: Test B flooded paddy test; conditions: Oryza sativa
In short: as §2

[10] = system: umbrella sedge (Cyperus difformis); assay: Test B flooded paddy test; conditions: Cyperus difformis, 360 h
In short: as §2

Work on `CCn1ncc(C(=O)c2cnc(-c3ccccc3)n(Cc3ccccc3)c2=O)c1OS(=O)(=O)c1ccc(C)cc1` [Compound 21, 5-[[1-ethyl-5-[[(4-methylphenyl)sulfonyl]oxy]-1H-pyrazol-4-yl]carbonyl]-2-phenyl-3-(phenylmethyl)-4(3H)-pyrimidinone] yielded a pest or weed control at 125 g/ha ([1]; post-emergence, Postemergence, visual injury, 0 to 100 scale (0 no effect, 100 complete control), approx. ten days, read-out: Barnyardgrass plant response rating) of 0%, a pest or weed control at 500 g/ha ([1]; post-emergence, Postemergence, 0 to 100 scale, 0 = no effect, 100 = complete control, approx. ten days, read-out: Plant response rating, Barnyardgrass) of 10% and a pest or weed control at 125 g/ha ([1]; pre-emergence, Preemergence, 0 to 100 scale, 0 = no effect, 100 = complete control, read-out: Plant response rating, Barnyardgrass) of 0%. For the same compound, the pest or weed control at 500 g/ha ([1]; pre-emergence, Preemergence, visual injury, 0 to 100 scale (0 no effect, 100 complete control), approx. ten days, read-out: Plant response rating, Barnyardgrass) was 0%, the plant injury at 125 g/ha (corn (Zea mays); post-emergence, Postemergence, 125 g ai/ha, visual injury, 0 to 100 scale (0 no effect, 100 complete control), approx. ten days, read-out: Corn plant response rating) was 0% and the Corn plant response rating (crop injury, 0 = no effect, 100 = complete kill) at 500 g/ha (corn (Zea mays); post-emergence, Postemergence, 0 to 100 scale, 0 = no effect, 100 = complete control, approx. ten days) was 0%. It also gave a Corn plant response rating (crop injury, 0 = no effect, 100 = complete kill) at 125 g/ha (corn (Zea mays); pre-emergence, Preemergence, 125 g ai/ha, 0 to 100 scale, 0 = no effect, 100 = complete control) of 0%, a Corn plant response rating (crop injury, 0 = no effect, 100 = complete kill) at 500 g/ha (corn (Zea mays); pre-emergence, Preemergence, visual injury, 0 to 100 scale (0 no effect, 100 complete control), approx. ten days) of 0% and a pest or weed control at 125 g/ha ([2]; post-emergence, Postemergence, visual injury, 0 to 100 scale (0 no effect, 100 complete control), approx. ten days, read-out: Foxtail, Giant plant response rating) of 0%. The pest or weed control at 500 g/ha ([2]; post-emergence, Postemergence, 0 to 100 scale, 0 = no effect, 100 = complete control, approx. ten days, read-out: Plant response rating, Foxtail, Giant) was 0%, the pest or weed control at 125 g/ha ([2]; pre-emergence, Preemergence, 0 to 100 scale, 0 = no effect, 100 = complete control, read-out: Plant response rating, Foxtail, Giant) was 0% and the pest or weed control at 500 g/ha ([2]; pre-emergence, Preemergence, visual injury, 0 to 100 scale (0 no effect, 100 complete control), approx. ten days, read-out: Plant response rating, Foxtail, Giant) was 10%. The pest or weed control at 125 g/ha ([3]; post-emergence, Postemergence, visual injury, 0 to 100 scale (0 no effect, 100 complete control), approx. ten days, read-out: Crabgrass, Large plant response rating) was 0%, the pest or weed control at 500 g/ha ([3]; post-emergence, Postemergence, 0 to 100 scale, 0 = no effect, 100 = complete control, approx. ten days, read-out: Plant response rating, Crabgrass, Large) was 10% and the pest or weed control at 125 g/ha ([3]; pre-emergence, Preemergence, 0 to 100 scale, 0 = no effect, 100 = complete control, read-out: Plant response rating, Crabgrass, Large) was 0%. The pest or weed control at 500 g/ha ([3]; pre-emergence, Preemergence, visual injury, 0 to 100 scale (0 no effect, 100 complete control), approx. ten days, read-out: Plant response rating, Crabgrass, Large) was 20%, the pest or weed control at 125 g/ha ([4]; post-emergence, Postemergence, visual injury, 0 to 100 scale (0 no effect, 100 complete control), approx. ten days, read-out: Morningglory plant response rating) was 0% and the pest or weed control at 500 g/ha ([4]; post-emergence, Postemergence, 0 to 100 scale, 0 = no effect, 100 = complete control, approx. ten days, read-out: Plant response rating, Morningglory) was 0%. It also gave a pest or weed control at 125 g/ha ([4]; pre-emergence, Preemergence, 0 to 100 scale, 0 = no effect, 100 = complete control, read-out: Plant response rating, Morningglory) of 0%, a pest or weed control at 500 g/ha ([4]; pre-emergence, Preemergence, visual injury, 0 to 100 scale (0 no effect, 100 complete control), approx. ten days, read-out: Plant response rating, Morningglory) of 0% and a pest or weed control at 125 g/ha ([5]; post-emergence, Postemergence, 125 g ai/ha, visual injury, 0 to 100 scale (0 no effect, 100 complete control), read-out: Pigweed plant response rating) of 0%. The pest or weed control at 500 g/ha ([5]; post-emergence, Postemergence, 0 to 100 scale, 0 = no effect, 100 = complete control) was 50%, the pest or weed control at 500 g/ha ([5]; pre-emergence, Preemergence, visual injury, 0 to 100 scale (0 no effect, 100 complete control)) was 70% and the pest or weed control at 125 g/ha ([6]; post-emergence, Postemergence, visual injury, 0 to 100 scale (0 no effect, 100 complete control), approx. ten days, read-out: Velvetleaf plant response rating) was 30%. It also gave a pest or weed control at 500 g/ha ([6]; post-emergence, Postemergence, 0 to 100 scale, 0 = no effect, 100 = complete control, approx. ten days, read-out: Plant response rating, Velvetleaf) of 70%, a pest or weed control at 125 g/ha ([6]; pre-emergence, Preemergence, 0 to 100 scale, 0 = no effect, 100 = complete control, read-out: Plant response rating, Velvetleaf) of 0% and a pest or weed control at 500 g/ha ([6]; pre-emergence, Preemergence, visual injury, 0 to 100 scale (0 no effect, 100 complete control), approx. ten days, read-out: Plant response rating, Velvetleaf) of 0%. It also gave a plant injury at 125 g/ha ([7]; post-emergence, Postemergence, visual injury, 0 to 100 scale (0 no effect, 100 complete control), approx. ten days, read-out: Wheat plant response rating) of 0%, a plant injury at 500 g/ha ([7]; post-emergence, Postemergence, 0 to 100 scale, 0 = no effect, 100 = complete control, approx. ten days, read-out: Plant response rating, Wheat) of 0% and a plant injury at 125 g/ha ([7]; pre-emergence, Preemergence, 0 to 100 scale, 0 = no effect, 100 = complete control, read-out: Plant response rating, Wheat) of 0%. The plant injury at 500 g/ha ([7]; pre-emergence, Preemergence, visual injury, 0 to 100 scale (0 no effect, 100 complete control), approx. ten days, read-out: Plant response rating, Wheat) was 0%, the pest or weed control at 250 g/ha ([8]; 250 g ai/ha, flooded paddy test, visual rating on 0 to 100 scale (0 no effect, 100 complete control) after 13 to 15 days, read-out: Plant response rating, Flood, Barnyardgrass) was 0% and the pest or weed control at 31 g/ha ([8]; Flood (flooded paddy test), 31 g ai/ha, scale of 0 to 100 where 0 is no effect and 100 is complete control, 13 to 15 days, read-out: Plant response rating, Barnyardgrass) was 0%. It also gave a pest or weed control at 62 g/ha ([8]; Flood (flooded paddy test), 62 g ai/ha, scale 0 to 100, 0 is no effect, 100 is complete control, 13 to 15 days, read-out: Plant response rating, Barnyardgrass) of 0%, a pest or weed control at 125 g/ha ([8]; Flood (flooded paddy test), 125 g ai/ha, scale 0 to 100, 0 is no effect, 100 is complete control, 13 to 15 days, read-out: Plant response rating, Barnyardgrass) of 0% and a pest or weed control at 250 g/ha ([9]; 250 g ai/ha, flooded paddy test, visual rating on 0 to 100 scale (0 no effect, 100 complete control) after 13 to 15 days, read-out: Plant response rating, Flood, Ducksalad) of 75%. For the same compound, the pest or weed control at 31 g/ha ([9]; Flood (flooded paddy test), 31 g ai/ha, scale of 0 to 100 where 0 is no effect and 100 is complete control, 13 to 15 days, read-out: Plant response rating, Ducksalad) was 60%, the pest or weed control at 62 g/ha ([9]; Flood (flooded paddy test), 62 g ai/ha, scale 0 to 100, 0 is no effect, 100 is complete control, 13 to 15 days, read-out: Plant response rating, Ducksalad) was 70% and the pest or weed control at 125 g/ha ([9]; Flood (flooded paddy test), 125 g ai/ha, scale 0 to 100, 0 is no effect, 100 is complete control, 13 to 15 days, read-out: Plant response rating, Ducksalad) was 70%. The plant injury at 250 g/ha (rice (Oryza sativa); 250 g ai/ha, flooded paddy test, visual rating on 0 to 100 scale (0 no effect, 100 complete control) after 13 to 15 days, read-out: Plant response rating, Flood, Rice) was 0%, the plant injury at 31 g/ha (rice (Oryza sativa); Flood (flooded paddy test), 31 g ai/ha, scale of 0 to 100 where 0 is no effect and 100 is complete control, 13 to 15 days, read-out: Plant response rating, Rice) was 0% and the plant injury at 62 g/ha (rice (Oryza sativa); Flood (flooded paddy test), 62 g ai/ha, scale 0 to 100, 0 is no effect, 100 is complete control, 13 to 15 days, read-out: Plant response rating, Rice) was 0%. For the same compound, the plant injury at 125 g/ha (rice (Oryza sativa); Flood (flooded paddy test), 125 g ai/ha, scale 0 to 100, 0 is no effect, 100 is complete control, 13 to 15 days, read-out: Plant response rating, Rice) was 0%, the pest or weed control at 250 g/ha ([10]; 250 g ai/ha, flooded paddy test, visual rating on 0 to 100 scale (0 no effect, 100 complete control) after 13 to 15 days, read-out: Plant response rating, Flood, Sedge, Umbrella) was 65% and the pest or weed control at 31 g/ha ([10]; Flood (flooded paddy test), 31 g ai/ha, scale of 0 to 100 where 0 is no effect and 100 is complete control, 13 to 15 days, read-out: Plant response rating, Sedge, Umbrella) was 40%. It also gave a pest or weed control at 62 g/ha ([10]; Flood (flooded paddy test), 62 g ai/ha, scale 0 to 100, 0 is no effect, 100 is complete control, 13 to 15 days, read-out: Plant response rating, Sedge, Umbrella) of 50% and a pest or weed control at 125 g/ha ([10]; Flood (flooded paddy test), 125 g ai/ha, scale 0 to 100, 0 is no effect, 100 is complete control, 13 to 15 days, read-out: Plant response rating, Sedge, Umbrella) of 60%.

From patent US8952024B2, “Herbicidal pyrimidone derivatives” (E I du Pont de Nemours and Company, priority 2009, dated 2015)
